Source: PubChem BioAssay (NCI)
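Briefly, cells in 96-well plates were exposed to five compound concentrations for 48 h, and endpoints were estimated by linear interpolation. The concentration for 50% growth inhibition is given as GI50. TGI marks complete inhibition of growth.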

What was measured:
Test in all cases: NCI anticancer screen, dose series, 48 h
M14 melanoma = test system: M14 melanoma
U251 CNS = test system: U251 CNS
SK-MEL-28 melanoma = test system: SK-MEL-28 melanoma
HOP-62 NSCLC = test system: HOP-62 NSCLC
MDA-MB-231 breast = test system: MDA-MB-231 breast
DU-145 prostate = test system: DU-145 prostate
NCI-H226 lung = test system: NCI-H226 lung
A498 renal = test system: A498 renal
MCF7 breast = test system: MCF7 breast
MALME-3M melanoma = test system: MALME-3M melanoma
SR leukemia = test system: SR leukemia
SF-539 CNS = test system: SF-539 CNS
COLO 205 colon = test system: COLO 205 colon
UACC-62 melanoma = test system: UACC-62 melanoma
OVCAR-8 ovarian = test system: OVCAR-8 ovarian
K-562 leukemia = test system: K-562 leukemia
IGROV1 ovarian = test system: IGROV1 ovarian
HT29 colon = test system: HT29 colon
BT-549 breast = test system: BT-549 breast
EKVX NSCLC = test system: EKVX NSCLC
NCI-H522 lung = test system: NCI-H522 lung
A549 NSCLC = test system: A549 NSCLC
CAKI-1 renal = test system: CAKI-1 renal
OVCAR-3 ovarian = test system: OVCAR-3 ovarian
PC-3 prostate = test system: PC-3 prostate
MOLT-4 leukemia = test system: MOLT-4 leukemia
SF-268 CNS = test system: SF-268 CNS
SK-OV-3 ovarian = test system: SK-OV-3 ovarian
NCI-H460 lung = test system: NCI-H460 lung
HS 578T breast = test system: HS 578T breast
OVCAR-4 ovarian = test system: OVCAR-4 ovarian
HCT-116 colon = test system: HCT-116 colon
HCT-15 colon = test system: HCT-15 colon
RPMI-8226 leukemia = test system: RPMI-8226 leukemia
NCI/ADR-RES ovarian = test system: NCI/ADR-RES ovarian
OVCAR-5 ovarian = test system: OVCAR-5 ovarian
SW-620 colon = test system: SW-620 colon
LOX IMVI melanoma = test system: LOX IMVI melanoma
SN12C renal = test system: SN12C renal
ACHN renal = test system: ACHN renal
UACC-257 melanoma = test system: UACC-257 melanoma
MDA-MB-435 = test system: MDA-MB-435
TK-10 renal = test system: TK-10 renal
CCRF-CEM leukemia = test system: CCRF-CEM leukemia
RXF 393 renal = test system: RXF 393 renal
SK-MEL-2 melanoma = test system: SK-MEL-2 melanoma
UO-31 renal = test system: UO-31 renal
HL-60(TB) leukemia = test system: HL-60(TB) leukemia
SNB-19 CNS = test system: SNB-19 CNS
T-47D breast = test system: T-47D breast
SF-295 CNS = test system: SF-295 CNS
SK-MEL-5 melanoma = test system: SK-MEL-5 melanoma
786-0 renal = test system: 786-0 renal
KM12 colon = test system: KM12 colon
NCI-H23 lung = test system: NCI-H23 lung

CC(C)(C)OC(=O)N(CCCN(CCn1c2c(c3ccccc3c1=O)C(=O)c1ccccc1-2)C(=O)OC(C)(C)C)CCn1c2c(c3ccccc3c1=O)C(=O)c1ccccc1-2
GI50 (M14 melanoma): > 50 µM
TGI (M14 melanoma): > 50 µM
GI50 (U251 CNS): 15.2 µM
TGI (U251 CNS): > 50 µM
GI50 (SK-MEL-28 melanoma): > 50 µM
TGI (SK-MEL-28 melanoma): > 50 µM
GI50 (HOP-62 NSCLC): 22.3 µM
TGI (HOP-62 NSCLC): > 50 µM
GI50 (MDA-MB-231 breast): > 50 µM
TGI (MDA-MB-231 breast): > 50 µM
GI50 (DU-145 prostate): > 50 µM
TGI (DU-145 prostate): > 50 µM
GI50 (NCI-H226 lung): > 50 µM
TGI (NCI-H226 lung): > 50 µM
GI50 (A498 renal): > 50 µM
TGI (A498 renal): > 50 µM
GI50 (MCF7 breast): > 50 µM
TGI (MCF7 breast): > 50 µM
GI50 (MALME-3M melanoma): > 50 µM
TGI (MALME-3M melanoma): > 50 µM
GI50 (SR leukemia): 2.07 µM
TGI (SR leukemia): 8.87 µM
GI50 (SF-539 CNS): > 50 µM
TGI (SF-539 CNS): > 50 µM
GI50 (COLO 205 colon): > 50 µM
TGI (COLO 205 colon): > 50 µM
GI50 (UACC-62 melanoma): > 50 µM
TGI (UACC-62 melanoma): > 50 µM
GI50 (OVCAR-8 ovarian): 34.9 µM
TGI (OVCAR-8 ovarian): > 50 µM
GI50 (K-562 leukemia): 12.4 µM
TGI (K-562 leukemia): 46 µM
GI50 (IGROV1 ovarian): 34.5 µM
TGI (IGROV1 ovarian): > 50 µM
GI50 (HT29 colon): > 50 µM
TGI (HT29 colon): > 50 µM
GI50 (BT-549 breast): > 50 µM
TGI (BT-549 breast): > 50 µM
GI50 (EKVX NSCLC): > 50 µM
TGI (EKVX NSCLC): > 50 µM
GI50 (NCI-H522 lung): 47.6 µM
TGI (NCI-H522 lung): > 50 µM
GI50 (A549 NSCLC): > 50 µM
TGI (A549 NSCLC): > 50 µM
GI50 (CAKI-1 renal): > 50 µM
TGI (CAKI-1 renal): > 50 µM
GI50 (OVCAR-3 ovarian): 21.2 µM
TGI (OVCAR-3 ovarian): > 50 µM
GI50 (PC-3 prostate): > 50 µM
TGI (PC-3 prostate): > 50 µM
GI50 (MOLT-4 leukemia): 6.46 µM
TGI (MOLT-4 leukemia): 16 µM
GI50 (SF-268 CNS): 28.2 µM
TGI (SF-268 CNS): > 50 µM
GI50 (SK-OV-3 ovarian): > 50 µM
TGI (SK-OV-3 ovarian): > 50 µM
GI50 (NCI-H460 lung): 49.7 µM
TGI (NCI-H460 lung): > 50 µM
GI50 (HS 578T breast): 41.1 µM
TGI (HS 578T breast): > 50 µM
GI50 (OVCAR-4 ovarian): > 50 µM
TGI (OVCAR-4 ovarian): > 50 µM
GI50 (HCT-116 colon): 22.7 µM
TGI (HCT-116 colon): > 50 µM
GI50 (HCT-15 colon): 31.1 µM
TGI (HCT-15 colon): > 50 µM
GI50 (RPMI-8226 leukemia): 7.21 µM
TGI (RPMI-8226 leukemia): 48.6 µM
GI50 (NCI/ADR-RES ovarian): > 50 µM
TGI (NCI/ADR-RES ovarian): > 50 µM
GI50 (OVCAR-5 ovarian): > 50 µM
TGI (OVCAR-5 ovarian): > 50 µM
GI50 (SW-620 colon): 40.7 µM
TGI (SW-620 colon): > 50 µM
GI50 (LOX IMVI melanoma): > 50 µM
TGI (LOX IMVI melanoma): > 50 µM
GI50 (SN12C renal): > 50 µM
TGI (SN12C renal): > 50 µM
GI50 (ACHN renal): 14.5 µM
TGI (ACHN renal): > 50 µM
GI50 (UACC-257 melanoma): > 50 µM
TGI (UACC-257 melanoma): > 50 µM
GI50 (MDA-MB-435): > 50 µM
TGI (MDA-MB-435): > 50 µM
GI50 (TK-10 renal): > 50 µM
TGI (TK-10 renal): > 50 µM
GI50 (CCRF-CEM leukemia): 13.3 µM
TGI (CCRF-CEM leukemia): > 50 µM
GI50 (RXF 393 renal): 25.9 µM
TGI (RXF 393 renal): > 50 µM
GI50 (SK-MEL-2 melanoma): > 50 µM
TGI (SK-MEL-2 melanoma): > 50 µM
GI50 (UO-31 renal): > 50 µM
TGI (UO-31 renal): > 50 µM
GI50 (HL-60(TB) leukemia): 14.1 µM
TGI (HL-60(TB) leukemia): > 50 µM
GI50 (SNB-19 CNS): > 50 µM
TGI (SNB-19 CNS): > 50 µM
GI50 (T-47D breast): > 50 µM
TGI (T-47D breast): > 50 µM
GI50 (SF-295 CNS): 15.3 µM
TGI (SF-295 CNS): > 50 µM
GI50 (SK-MEL-5 melanoma): > 50 µM
TGI (SK-MEL-5 melanoma): > 50 µM
GI50 (786-0 renal): 16.5 µM
TGI (786-0 renal): > 50 µM
GI50 (KM12 colon): > 50 µM
TGI (KM12 colon): > 50 µM
GI50 (NCI-H23 lung): > 50 µM
TGI (NCI-H23 lung): > 50 µM
